Key:
Details in all cases: 72 h
Caco-2 [1] = test: cell viability relative to DMSO; higher = less toxic
HepG2 [2] = test: as above
U2OS [3] = test: as above
Vero E6 [4] = test: as above
Caco-2 [5] = test: relative viability EC50 (midpoint between 100% and the lowest measured viability); higher = less toxic
U2OS [6] = test: as above
Vero E6 [7] = test: as above
Caco-2 [8] = test: drug sensitivity score (DSS) for viability; higher = more toxic; extreme values may be limits of the assay
HepG2 [9] = test: as above
U2OS [10] = test: as above
Vero E6 [11] = test: as above
Calu-3 [12] = test: cell viability relative to DMSO; higher = less toxic
Calu-3 [13] = test: relative viability EC50 (midpoint between 100% and the lowest measured viability); higher = less toxic
HepG2 [14] = test: as above
Calu-3 [15] = test: drug sensitivity score (DSS) for viability; higher = more toxic; extreme values may be limits of the assay

| Compound | cell viability (Caco-2 [1]; 1 nM) [%] | cell viability (Caco-2 [1]; 10 nM) [%] | cell viability (Caco-2 [1]; 100 nM) [%] | cell viability (Caco-2 [1]; 1000 nM) [%] | cell viability (Caco-2 [1]; 10000 nM) [%] | cell viability (HepG2 [2]; 1 nM) [%] | cell viability (HepG2 [2]; 10 nM) [%] | cell viability (HepG2 [2]; 100 nM) [%] | cell viability (HepG2 [2]; 1000 nM) [%] | cell viability (HepG2 [2]; 10000 nM) [%] | cell viability (U2OS [3]; 1 nM) [%] | cell viability (U2OS [3]; 10 nM) [%] | cell viability (U2OS [3]; 100 nM) [%] | cell viability (U2OS [3]; 1000 nM) [%] | cell viability (U2OS [3]; 10000 nM) [%] | cell viability (Vero E6 [4]; 1 nM) [%] | cell viability (Vero E6 [4]; 10 nM) [%] | cell viability (Vero E6 [4]; 100 nM) [%] | cell viability (Vero E6 [4]; 1000 nM) [%] | cell viability (Vero E6 [4]; 10000 nM) [%] | relative viability EC50 (Caco-2 [5]) [µM] | relative viability EC50 (U2OS [6]) [µM] | relative viability EC50 (Vero E6 [7]) [µM] | drug sensitivity score (Caco-2 [8]) | drug sensitivity score (HepG2 [9]) | drug sensitivity score (U2OS [10]) | drug sensitivity score (Vero E6 [11]) | cell viability (Calu-3 [12]; 1 nM) [%] | cell viability (Calu-3 [12]; 10 nM) [%] | cell viability (Calu-3 [12]; 100 nM) [%] | cell viability (Calu-3 [12]; 1000 nM) [%] | cell viability (Calu-3 [12]; 10000 nM) [%] | relative viability EC50 (Calu-3 [13]) [µM] | relative viability EC50 (HepG2 [14]) [µM] | drug sensitivity score (Calu-3 [15]) |
| --- | --- | --- | --- | --- | --- | --- | --- | --- | --- | --- | --- | --- | --- | --- | --- | --- | --- | --- | --- | --- | --- | --- | --- | --- | --- | --- | --- | --- | --- | --- | --- | --- | --- | --- | --- |
| CCN(CC)Cc1ccc(C(=O)N(CCc2ccccc2OC)[C@@H]2CCNC2)cc1 | 99.2 | 93 | 91.6 | 101 | 98.2 | 97.9 | 96.6 | 108 | 104 | 70.5 | 95.5 | 95.7 | 96.9 | 97.2 | 99.3 | 90.3 | 97.9 | 91.5 | 93.1 | 99.9 | > 10 | > 10 | > 10 | 0 | 1 | 0 | 0 |  |  |  |  |  |  |  |  |
| CCC(C)(CN(C)C)OC(=O)c1ccccc1 (stereo not drawn) [amyleine] | 115 | 88.1 | 97.3 | 101 | 92.7 | 106 | 103 | 109 | 98.1 | 88.7 |  |  |  |  |  | 108 | 99.8 | 99 | 104 | 100 | > 10 |  | > 10 | 0 | 0.1 |  | 0 | 106 | 95.6 | 101 | 102 | 114 | > 10 | > 10 | 0 |
| COc1ccc(-c2cc(=O)c3c(OC)c(OC)c(OC)c(OC)c3o2)cc1OC [nobiletin] | 86.4 | 99.4 | 100 | 95.3 | 80.9 | 96.9 | 108 | 102 | 83.2 | 68.6 | 94.4 | 103 | 94 | 99.7 | 92.3 | 102 | 104 | 94.5 | 93.5 | 91.6 | > 10 | > 10 | > 10 | 1.1 | 3.4 | 0 | 0 | 99.5 | 111 | 106 | 104 | 83.8 | > 10 |  | 0.2 |
| N#CSc1cc(SC#N)c(N)nc1N [PR-619] | 93 | 91.5 | 93.6 | 92.2 | 85.4 | 104 | 120 | 108 | 107 | 55.4 | 101 | 96.4 | 99 | 94.1 | 90.6 | 92.3 | 104 | 103 | 99.6 | 77.3 | > 10 | > 10 | > 10 | 0 | 1.9 | 0 | 0.8 | 109 | 94.5 | 93.9 | 107 | 94.8 | > 10 |  | 0 |

Source: the supplement of paper PMC13380429
